PMC10682951, “Structure-function and rational design of a spider toxin Ssp1a at human voltage-gated sodium channel subtypes” (Frontiers in Pharmacology, 2023)
Bridge positions count the residues as written; N and C are the ends. Peptide text beside a SMILES is read from it.

Legend:
Assay type in all cases: cell-based
[1] = target: T1, hNaV1.3 (Homo sapiens, UniProt Q9NY46); test: Automated whole-cell patch-clamp (QPatch 16X), hNaV1.3; settings: for IC50: HEK293 cells expressing hNaV1.3 + β1 subunit, QPatch 16X, holding −80 mV, step to 0 mV, peptide incubated 2 min, 0.1% BSA, mean, SEM and n (3-12)
T1 construct: host or cells: HEK293
In short: (§1)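 HEK293 cells stably expressing the channel (human subtypes with β1 subunit), held at −80 mV; 2 min peptide pre-incubation, then 20 ms steps to 0 mV after a 200 ms −120 mV conditioning pulse. Extracellular pH 7.3 with 20 mM TEA-Cl, CsF-based pipette solution, 0.1% BSA; IC50 from four-parameter Hill fit.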

[2] = target: T2, hNaV1.7 (Homo sapiens, UniProt Q15858); test: Automated whole-cell patch-clamp (QPatch 16X), hNaV1.7; settings: HEK293 cells expressing hNaV1.7 + β1 subunit; QPatch 16X; holding −80 mV, step to 0 mV; peptide incubated 2 min; 0.1% BSA; mean, SEM and n (3-9)
T2 construct: host or cells: HEK293
In short: as §1

[3] = target: T3, hNaV1.2 (Homo sapiens, UniProt Q99250); test: Automated whole-cell patch-clamp (QPatch 16X), hNaV1.2; settings: for IC50: HEK293 cells expressing hNaV1.2 + β1 subunit, QPatch 16X, holding −80 mV, step to 0 mV, peptide incubated 2 min, 0.1% BSA, mean, SEM and n (2-7); for hNaV1.2-selectivity against hNaV1.3: ratio of potencies hNaV1.3 / hNaV1.2
T3 construct: host or cells: HEK293
In short: as §1

T2 sequence (Q15858 whole entry): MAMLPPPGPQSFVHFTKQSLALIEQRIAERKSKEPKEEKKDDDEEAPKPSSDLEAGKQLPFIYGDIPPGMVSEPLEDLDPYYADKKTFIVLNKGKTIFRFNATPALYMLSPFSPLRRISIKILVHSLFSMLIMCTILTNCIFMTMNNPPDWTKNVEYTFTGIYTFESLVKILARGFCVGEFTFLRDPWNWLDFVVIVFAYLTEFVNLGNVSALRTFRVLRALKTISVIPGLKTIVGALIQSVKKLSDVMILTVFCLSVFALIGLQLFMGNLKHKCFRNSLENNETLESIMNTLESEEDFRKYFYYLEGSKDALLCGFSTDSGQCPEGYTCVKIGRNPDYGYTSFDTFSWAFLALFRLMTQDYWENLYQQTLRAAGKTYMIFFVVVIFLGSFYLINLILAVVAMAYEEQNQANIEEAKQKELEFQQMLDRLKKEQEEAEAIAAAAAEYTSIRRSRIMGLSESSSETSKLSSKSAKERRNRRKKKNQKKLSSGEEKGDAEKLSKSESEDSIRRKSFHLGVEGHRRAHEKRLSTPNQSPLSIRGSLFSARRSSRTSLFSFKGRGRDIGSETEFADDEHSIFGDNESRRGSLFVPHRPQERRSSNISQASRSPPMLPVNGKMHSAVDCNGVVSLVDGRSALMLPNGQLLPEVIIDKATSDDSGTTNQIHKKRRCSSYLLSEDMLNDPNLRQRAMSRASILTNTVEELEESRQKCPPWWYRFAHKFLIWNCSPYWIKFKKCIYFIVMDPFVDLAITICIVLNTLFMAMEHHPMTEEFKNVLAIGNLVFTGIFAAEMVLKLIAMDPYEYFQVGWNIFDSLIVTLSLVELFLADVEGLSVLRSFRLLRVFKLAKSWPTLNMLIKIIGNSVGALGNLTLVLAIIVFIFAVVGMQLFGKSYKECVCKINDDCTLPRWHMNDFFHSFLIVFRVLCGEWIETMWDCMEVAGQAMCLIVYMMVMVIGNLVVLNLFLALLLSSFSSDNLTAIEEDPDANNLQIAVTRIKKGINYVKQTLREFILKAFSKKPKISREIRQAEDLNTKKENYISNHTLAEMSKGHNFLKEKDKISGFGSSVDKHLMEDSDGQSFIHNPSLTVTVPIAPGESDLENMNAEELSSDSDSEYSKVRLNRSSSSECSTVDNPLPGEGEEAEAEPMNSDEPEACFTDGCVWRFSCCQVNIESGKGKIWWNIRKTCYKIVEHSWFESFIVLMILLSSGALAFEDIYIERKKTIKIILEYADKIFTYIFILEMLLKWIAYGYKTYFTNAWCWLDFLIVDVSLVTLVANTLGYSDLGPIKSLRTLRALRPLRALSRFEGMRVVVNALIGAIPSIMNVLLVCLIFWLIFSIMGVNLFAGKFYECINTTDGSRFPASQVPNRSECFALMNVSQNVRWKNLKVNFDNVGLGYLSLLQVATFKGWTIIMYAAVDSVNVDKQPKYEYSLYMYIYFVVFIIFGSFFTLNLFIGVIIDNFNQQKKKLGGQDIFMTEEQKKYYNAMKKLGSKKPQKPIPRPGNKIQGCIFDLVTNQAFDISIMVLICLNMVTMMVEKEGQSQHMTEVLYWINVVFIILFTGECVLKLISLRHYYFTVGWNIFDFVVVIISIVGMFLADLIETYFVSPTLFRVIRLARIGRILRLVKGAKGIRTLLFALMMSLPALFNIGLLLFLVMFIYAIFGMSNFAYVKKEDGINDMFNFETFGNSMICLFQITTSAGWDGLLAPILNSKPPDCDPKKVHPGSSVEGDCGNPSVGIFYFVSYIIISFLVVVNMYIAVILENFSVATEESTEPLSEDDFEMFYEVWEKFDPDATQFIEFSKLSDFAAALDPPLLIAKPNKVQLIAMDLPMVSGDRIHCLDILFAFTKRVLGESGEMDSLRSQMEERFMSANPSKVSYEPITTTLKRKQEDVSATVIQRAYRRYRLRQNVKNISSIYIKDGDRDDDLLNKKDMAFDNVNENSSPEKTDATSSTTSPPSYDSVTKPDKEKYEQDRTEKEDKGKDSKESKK
T2 sequence (Q07699 19-218, further chain): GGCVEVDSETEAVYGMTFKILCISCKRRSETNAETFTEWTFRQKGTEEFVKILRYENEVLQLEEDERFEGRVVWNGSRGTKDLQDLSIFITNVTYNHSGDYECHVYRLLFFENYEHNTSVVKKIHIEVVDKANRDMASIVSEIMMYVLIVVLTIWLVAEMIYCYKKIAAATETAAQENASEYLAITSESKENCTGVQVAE
T1 sequence (Q9NY46 whole entry): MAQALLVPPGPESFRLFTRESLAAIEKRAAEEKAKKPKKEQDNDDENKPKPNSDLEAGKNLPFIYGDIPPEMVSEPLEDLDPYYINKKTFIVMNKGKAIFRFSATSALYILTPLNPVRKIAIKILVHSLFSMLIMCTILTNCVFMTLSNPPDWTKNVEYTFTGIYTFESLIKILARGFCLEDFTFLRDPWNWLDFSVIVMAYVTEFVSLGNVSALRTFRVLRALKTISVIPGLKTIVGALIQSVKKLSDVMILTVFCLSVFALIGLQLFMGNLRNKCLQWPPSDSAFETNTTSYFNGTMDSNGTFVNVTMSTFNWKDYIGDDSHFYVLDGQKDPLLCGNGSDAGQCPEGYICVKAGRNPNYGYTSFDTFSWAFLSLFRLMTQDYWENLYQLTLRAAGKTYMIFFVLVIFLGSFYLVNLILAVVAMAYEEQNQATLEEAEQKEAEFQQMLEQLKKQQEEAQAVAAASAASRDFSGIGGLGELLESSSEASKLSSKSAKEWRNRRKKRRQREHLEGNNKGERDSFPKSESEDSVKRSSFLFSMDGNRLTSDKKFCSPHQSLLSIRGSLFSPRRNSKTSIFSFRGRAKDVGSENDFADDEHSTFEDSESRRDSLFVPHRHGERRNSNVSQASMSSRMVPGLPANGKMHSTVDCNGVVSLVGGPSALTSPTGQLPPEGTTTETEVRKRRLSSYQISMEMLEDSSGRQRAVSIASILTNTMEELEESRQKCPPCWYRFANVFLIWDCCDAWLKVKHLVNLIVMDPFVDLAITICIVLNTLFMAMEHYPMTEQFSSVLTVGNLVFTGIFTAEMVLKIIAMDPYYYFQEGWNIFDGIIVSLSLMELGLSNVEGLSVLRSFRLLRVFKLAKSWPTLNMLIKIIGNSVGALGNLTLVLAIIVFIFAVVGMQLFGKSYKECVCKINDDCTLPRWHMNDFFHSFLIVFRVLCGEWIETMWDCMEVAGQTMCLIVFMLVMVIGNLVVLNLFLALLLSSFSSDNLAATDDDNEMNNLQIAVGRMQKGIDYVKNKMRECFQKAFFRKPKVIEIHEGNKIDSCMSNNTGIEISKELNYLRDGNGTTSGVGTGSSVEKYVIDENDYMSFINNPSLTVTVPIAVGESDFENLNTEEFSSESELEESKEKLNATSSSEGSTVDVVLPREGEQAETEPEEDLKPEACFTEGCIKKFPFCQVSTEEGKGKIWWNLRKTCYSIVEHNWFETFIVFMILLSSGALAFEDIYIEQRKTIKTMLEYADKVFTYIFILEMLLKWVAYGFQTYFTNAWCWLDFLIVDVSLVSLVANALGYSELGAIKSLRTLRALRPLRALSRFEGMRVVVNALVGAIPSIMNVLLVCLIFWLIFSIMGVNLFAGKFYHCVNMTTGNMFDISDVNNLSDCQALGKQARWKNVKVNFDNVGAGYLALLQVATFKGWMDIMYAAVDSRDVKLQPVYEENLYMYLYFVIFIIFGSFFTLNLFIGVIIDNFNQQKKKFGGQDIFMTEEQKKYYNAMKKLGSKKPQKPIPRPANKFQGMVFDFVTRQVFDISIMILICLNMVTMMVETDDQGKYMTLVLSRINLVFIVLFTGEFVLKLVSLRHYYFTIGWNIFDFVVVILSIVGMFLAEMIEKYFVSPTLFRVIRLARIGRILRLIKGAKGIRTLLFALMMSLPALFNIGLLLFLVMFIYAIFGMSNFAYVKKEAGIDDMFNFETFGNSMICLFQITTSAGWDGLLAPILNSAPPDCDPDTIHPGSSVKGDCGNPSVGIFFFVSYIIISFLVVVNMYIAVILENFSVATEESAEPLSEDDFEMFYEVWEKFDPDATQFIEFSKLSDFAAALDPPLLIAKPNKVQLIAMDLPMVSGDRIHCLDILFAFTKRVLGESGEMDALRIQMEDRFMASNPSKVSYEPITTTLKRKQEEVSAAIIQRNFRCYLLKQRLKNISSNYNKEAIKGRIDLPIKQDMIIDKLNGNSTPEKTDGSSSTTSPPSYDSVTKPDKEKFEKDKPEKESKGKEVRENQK
T1 sequence (Q07699 19-218, further chain): as the sequence (Q07699 19-218, further chain) above

## CC(C)C[C@@H]1NC(=O)[C@@H](NC(=O)[C@H](CC(=O)O)NC(=O)CN)CSSC[C@@H]2NC(=O)[C@@H]3CSSC[C@@H](C(=O)N[C@@H](CCCNC(=N)N)C(=O)N[C@@H](Cc4ccc(O)cc4)C(=O)N[C@@H](CC(=O)O)C(=O)N[C@@H](C)C(=O)O)NC(=O)[C@H](Cc4c[nH]c5ccccc45)NC(=O)[C@@H]4CCCN4C(=O)[C@H](Cc4ccc(O)cc4)NC(=O)[C@H](CCCCN)NC(=O)[C@H](Cc4c[nH]c5ccccc45)NC(=O)[C@H](Cc4c[nH]cn4)NC(=O)[C@H](CSSC[C@H](NC(=O)CNC(=O)[C@H](CO)NC(=O)[C@H](Cc4ccccc4)NC(=O)[C@H](Cc4c[nH]c5ccccc45)NC(=O)CNC1=O)C(=O)N[C@@H](CC(=O)O)C(=O)N1CCC[C@H]1C(=O)N[C@@H](CC(N)=O)C(=O)N[C@@H](CC(N)=O)C(=O)N[C@@H](CC(N)=O)C(=O)N[C@@H](CCCCN)C(=O)N3)NC(=O)[C@H](C(C)C)NC(=O)[C@H](Cc1ccc(O)cc1)NC(=O)CNC(=O)[C@H](CCC(=O)O)NC2=O [L33A]
[1]
  IC50: > 3000 nM
[2]
  IC50: 448 nM
[3]
  IC50: 396 nM

## CC(C)C[C@H](NC(=O)[C@H](CC(=O)O)NC(=O)[C@H](Cc1ccc(O)cc1)NC(=O)[C@H](CCCNC(=N)N)NC(=O)[C@@H]1CSSC[C@@H]2NC(=O)[C@H](CCCCN)NC(=O)[C@H](CC(N)=O)NC(=O)CNC(=O)[C@H](CC(N)=O)NC(=O)[C@@H]3CCCN3C(=O)[C@H](CC(=O)O)NC(=O)[C@@H]3CSSC[C@H](NC(=O)[C@H](C(C)C)NC(=O)[C@H](Cc4ccc(O)cc4)NC(=O)CNC(=O)[C@H](CCC(=O)O)NC(=O)[C@H](CSSC[C@H](NC(=O)[C@H](CC(=O)O)NC(=O)CN)C(=O)N[C@@H](CC(C)C)C(=O)NCC(=O)N[C@@H](Cc4c[nH]c5ccccc45)C(=O)N[C@@H](Cc4ccccc4)C(=O)N[C@@H](CO)C(=O)NCC(=O)N3)NC2=O)C(=O)N[C@@H](Cc2c[nH]cn2)C(=O)N[C@@H](Cc2c[nH]c3ccccc23)C(=O)N[C@@H](CCCCN)C(=O)N[C@@H](Cc2ccc(O)cc2)C(=O)N2CCC[C@H]2C(=O)N[C@@H](Cc2c[nH]c3ccccc23)C(=O)N1)C(=O)O [N13G]
[1]
  IC50: 287 nM
[2]
  IC50: 287 nM
[3]
  IC50: 280 nM

## CC(C)C[C@H](NC(=O)[C@H](CC(=O)O)NC(=O)[C@H](Cc1ccc(O)cc1)NC(=O)[C@H](CCCNC(=N)N)NC(=O)[C@@H]1CSSC[C@@H]2NC(=O)[C@H](CCCCN)NC(=O)[C@H](C)NC(=O)[C@H](CC(N)=O)NC(=O)[C@H](CC(N)=O)NC(=O)[C@@H]3CCCN3C(=O)[C@H](CC(=O)O)NC(=O)[C@@H]3CSSC[C@H](NC(=O)[C@H](C(C)C)NC(=O)[C@H](Cc4ccc(O)cc4)NC(=O)CNC(=O)[C@H](CCC(=O)O)NC(=O)[C@H](CSSC[C@H](NC(=O)[C@H](CC(=O)O)NC(=O)CN)C(=O)N[C@@H](CC(C)C)C(=O)NCC(=O)N[C@@H](Cc4c[nH]c5ccccc45)C(=O)N[C@@H](Cc4ccccc4)C(=O)N[C@@H](CO)C(=O)NCC(=O)N3)NC2=O)C(=O)N[C@@H](Cc2c[nH]cn2)C(=O)N[C@@H](Cc2c[nH]c3ccccc23)C(=O)N[C@@H](CCCCN)C(=O)N[C@@H](Cc2ccc(O)cc2)C(=O)N2CCC[C@H]2C(=O)N[C@@H](Cc2c[nH]c3ccccc23)C(=O)N1)C(=O)O [N14A]
[1]
  IC50: 784 nM
[2]
  IC50: 252 nM
[3]
  IC50: 224 nM

## CC(C)C[C@H](NC(=O)[C@H](CC(=O)O)NC(=O)[C@H](Cc1ccc(O)cc1)NC(=O)[C@H](CCCNC(=N)N)NC(=O)[C@@H]1CSSC[C@@H]2NC(=O)[C@H](CCCCN)NC(=O)[C@H](CC(=O)O)NC(=O)[C@H](CC(N)=O)NC(=O)[C@H](CC(N)=O)NC(=O)[C@@H]3CCCN3C(=O)[C@H](CC(=O)O)NC(=O)[C@@H]3CSSC[C@H](NC(=O)[C@H](C(C)C)NC(=O)[C@H](Cc4ccc(O)cc4)NC(=O)CNC(=O)[C@H](CCC(=O)O)NC(=O)[C@H](CSSC[C@H](NC(=O)[C@H](CC(=O)O)NC(=O)CN)C(=O)N[C@@H](CC(C)C)C(=O)NCC(=O)N[C@@H](Cc4c[nH]c5ccccc45)C(=O)N[C@@H](Cc4ccccc4)C(=O)N[C@@H](CO)C(=O)NCC(=O)N3)NC2=O)C(=O)N[C@@H](Cc2c[nH]cn2)C(=O)N[C@@H](Cc2c[nH]c3ccccc23)C(=O)N[C@@H](CCCCN)C(=O)N[C@@H](Cc2ccc(O)cc2)C(=O)N[C@@H](CCCNC(=N)N)C(=O)N[C@@H](Cc2c[nH]c3ccccc23)C(=O)N1)C(=O)O [N14D/P27R] (H-GDCLGWFSGCDPNNDKCCEGYVCHWKYRWCRYDL-OH; disulfide 3-18, 10-23, 17-30)
[1]; 3 µM peptide, QPatch, read-out: Inhibition (block) of hNaV1.3 at 3 µM
  inhibition at 3 µM: ~40%
[1]
  IC50: > 3000 nM
[2]
  IC50: 57 nM
[3]
  IC50: 87 nM

## CC(C)C[C@H](NC(=O)[C@H](CC(=O)O)NC(=O)[C@H](Cc1ccc(O)cc1)NC(=O)[C@H](CCCNC(=N)N)NC(=O)[C@@H]1CSSC[C@@H]2NC(=O)[C@H](CCCCN)NC(=O)[C@H](CC(=O)O)NC(=O)[C@H](CC(N)=O)NC(=O)[C@H](CC(N)=O)NC(=O)[C@@H]3CCCN3C(=O)[C@H](CC(=O)O)NC(=O)[C@@H]3CSSC[C@H](NC(=O)[C@H](C(C)C)NC(=O)[C@H](Cc4ccc(O)cc4)NC(=O)CNC(=O)[C@H](CCC(=O)O)NC(=O)[C@H](CSSC[C@H](NC(=O)[C@H](CC(=O)O)NC(=O)CN)C(=O)N[C@@H](CC(C)C)C(=O)NCC(=O)N[C@@H](Cc4c[nH]c5ccccc45)C(=O)N[C@@H](Cc4ccccc4)C(=O)N[C@@H](CO)C(=O)NCC(=O)N3)NC2=O)C(=O)N[C@@H](Cc2c[nH]cn2)C(=O)N[C@@H](Cc2c[nH]c3ccccc23)C(=O)N[C@@H](CCCCN)C(=O)N[C@@H](Cc2ccc(O)cc2)C(=O)N2CCC[C@H]2C(=O)N[C@@H](Cc2c[nH]c3ccccc23)C(=O)N1)C(=O)O [N14D]
[1]
  IC50: 900 nM
[2]
  IC50: > 3000 nM
[3]
  IC50: 126 nM
  hNaV1.2-selectivity against hNaV1.3: 7 fold
[3]; ratio of potencies hNaV1.7 / hNaV1.2
  hNaV1.2-selectivity against hNaV1.7: > 24 fold

## CC(C)C[C@H](NC(=O)[C@H](CC(=O)O)NC(=O)[C@H](Cc1ccc(O)cc1)NC(=O)[C@H](CCCNC(=N)N)NC(=O)[C@@H]1CSSC[C@@H]2NC(=O)[C@H](CCCCN)NC(=O)[C@H](CC(N)=O)NC(=O)[C@H](CC(N)=O)NC(=O)[C@H](CC(N)=O)NC(=O)[C@H](C)NC(=O)[C@H](CC(=O)O)NC(=O)[C@@H]3CSSC[C@H](NC(=O)[C@H](C(C)C)NC(=O)[C@H](Cc4ccc(O)cc4)NC(=O)CNC(=O)[C@H](CCC(=O)O)NC(=O)[C@H](CSSC[C@H](NC(=O)[C@H](CC(=O)O)NC(=O)CN)C(=O)N[C@@H](CC(C)C)C(=O)NCC(=O)N[C@@H](Cc4c[nH]c5ccccc45)C(=O)N[C@@H](Cc4ccccc4)C(=O)N[C@@H](CO)C(=O)NCC(=O)N3)NC2=O)C(=O)N[C@@H](Cc2c[nH]cn2)C(=O)N[C@@H](Cc2c[nH]c3ccccc23)C(=O)N[C@@H](CCCCN)C(=O)N[C@@H](Cc2ccc(O)cc2)C(=O)N2CCC[C@H]2C(=O)N[C@@H](Cc2c[nH]c3ccccc23)C(=O)N1)C(=O)O [P11A]
[1]
  IC50: 600 nM
[2]
  IC50: 120 nM
[3]
  IC50: 208 nM

## CC(C)C[C@H](NC(=O)[C@H](CC(=O)O)NC(=O)[C@H](Cc1ccc(O)cc1)NC(=O)[C@H](CCCNC(=N)N)NC(=O)[C@@H]1CSSC[C@@H]2NC(=O)[C@H](CCCCN)NC(=O)[C@H](CC(N)=O)NC(=O)[C@H](CC(N)=O)NC(=O)[C@H](CC(N)=O)NC(=O)[C@@H]3CCCN3C(=O)[C@H](CC(=O)O)NC(=O)[C@@H]3CSSC[C@H](NC(=O)[C@H](C(C)C)NC(=O)[C@H](Cc4ccc(O)cc4)NC(=O)CNC(=O)[C@H](CCC(=O)O)NC(=O)[C@H](CSSC[C@H](NC(=O)[C@H](CC(=O)O)NC(=O)CN)C(=O)N[C@@H](CC(C)C)C(=O)NCC(=O)N[C@@H](Cc4c[nH]c5ccccc45)C(=O)N[C@@H](Cc4ccccc4)C(=O)N[C@@H](CO)C(=O)NCC(=O)N3)NC2=O)C(=O)N[C@@H](Cc2c[nH]cn2)C(=O)N[C@@H](Cc2c[nH]c3ccccc23)C(=O)N[C@@H](CCCCN)C(=O)N[C@@H](Cc2ccc(O)cc2)C(=O)N[C@@H](C)C(=O)N[C@@H](Cc2c[nH]c3ccccc23)C(=O)N1)C(=O)O [P27A]
[1]
  IC50: > 3000 nM
[2]
  IC50: 166 nM
[3]
  IC50: 270 nM

## CC(C)C[C@H](NC(=O)[C@H](CC(=O)O)NC(=O)[C@H](Cc1ccc(O)cc1)NC(=O)[C@H](CCCNC(=N)N)NC(=O)[C@@H]1CSSC[C@@H]2NC(=O)[C@H](CCCCN)NC(=O)[C@H](CC(N)=O)NC(=O)[C@H](CC(N)=O)NC(=O)[C@H](CC(N)=O)NC(=O)[C@@H]3CCCN3C(=O)[C@H](CC(=O)O)NC(=O)[C@@H]3CSSC[C@H](NC(=O)[C@H](C(C)C)NC(=O)[C@H](Cc4ccc(O)cc4)NC(=O)CNC(=O)[C@H](CCC(=O)O)NC(=O)[C@H](CSSC[C@H](NC(=O)[C@H](CC(=O)O)NC(=O)CN)C(=O)N[C@@H](CC(C)C)C(=O)NCC(=O)N[C@@H](Cc4c[nH]c5ccccc45)C(=O)N[C@@H](Cc4ccccc4)C(=O)N[C@@H](CO)C(=O)NCC(=O)N3)NC2=O)C(=O)N[C@@H](Cc2c[nH]cn2)C(=O)N[C@@H](Cc2c[nH]c3ccccc23)C(=O)N[C@@H](CCCCN)C(=O)N[C@@H](Cc2ccc(O)cc2)C(=O)N[C@@H](CCCCN)C(=O)N[C@@H](Cc2c[nH]c3ccccc23)C(=O)N1)C(=O)O [P27K]
[1]
  IC50: 1520 nM
[2]
  IC50: 108 nM
[3]
  IC50: 124 nM
  hNaV1.2-selectivity against hNaV1.3: > 10 fold
